This passage reports Kb, Activity and IC50 results from ChEMBL document CHEMBL4616635, “Investigations of antiproliferative and antioxidant activity of β-lactam morpholino-1,3,5-triazine hybrids” (Bioorg Med Chem, 2020).

Test [1] concerns Calf thymus DNA. The test is described as follows: Binding affinity to calf thymus DNA assessed as binding constant at 40 uM after 2 mins by UV-vis spectroscopy. As to conditions: Bos taurus. Format: nucleic-acid assay.
Test [2] concerns Calf thymus DNA. The test is described as follows: Binding affinity to calf thymus DNA assessed as hypochromism by measuring red shift in absorption spectra at 40 uM after 2 mins by UV-vis spectroscopy. Format: nucleic-acid assay. As to conditions: Bos taurus.
For another test, the system named is MCF7. The test is described as follows: Antiproliferative activity against human MCF7 cells assessed as inhibition of cell growth after overnight incubation by MTT assay. It is filed as functional, cell-based. On the technique in general: Tetrazolium dyes change colour on reduction, which living cells bring about.
A further test has as its system SW 1116. The test is described as follows: Antiproliferative activity against human SW1116 cells assessed as inhibition of cell growth after overnight incubation by MTT assay. It is filed as functional, cell-based.
Another test relates to HepG2. Nature of the test: Antiproliferative activity against human HepG2 cells assessed as inhibition of cell growth after overnight incubation by MTT assay. Format: functional, cell-based.
Test [3] can be described thus: Antioxidant activity assessed as DPPH radical scavenging activity measured for 5 mins by UV absorbance analysis. Format: functional.
The test system of a further test is HEK293. The test is described as follows: Cytotoxicity against human HEK293 cells assessed as inhibition of cell growth after overnight incubation by MTT assay. Format: cell-based.
Test [4] has as its system Calf thymus DNA. Nature of the test: Binding affinity to calf thymus DNA assessed as binding constant at 68 uM after 2 mins by UV-vis spectroscopy. As to conditions: Bos taurus. Format: nucleic-acid assay.
Test [5] deals with Calf thymus DNA. Nature of the test: Binding affinity to calf thymus DNA assessed as hypochromism by measuring red shift in absorption spectra at 68 uM after 2 mins by UV-vis spectroscopy. It is filed as nucleic-acid assay. As to conditions: Bos taurus.

In brackets after ≈: the same amount, converted by molar mass.

As for `O=C1[C@@H](Oc2ccc(Cl)cc2)[C@@H](c2ccc([N+](=O)[O-])cc2)N1c1ccc(Nc2nc(N3CCOCC3)nc(N3CCOCC3)n2)cc1` (relative stereo), in the test on Calf thymus DNA [1], the Kb worked out at 2.6 ×10⁵ /M. In addition, the Activity with Calf thymus DNA [2] is -5 nm. Moreover, the IC50 in the test with MCF7 was above 100 µM; in the test on SW 1116 it was 4.88 µM; in the test on HepG2, above 100 µM; in test [3], above 10000 µg/mL; with HEK293, above 100 µM.

Turning to `O=[N+]([O-])c1ccc(/C=N/c2ccc(Nc3nc(N4CCOCC4)nc(N4CCOCC4)n3)cc2)cc1`, the IC50 was above 100 µM with MCF7; 3.32 µM with SW 1116; above 100 µM in the test with HepG2; 195 µg/mL (≈ 0.398 mM) in [3]; above 100 µM in the test on HEK293. Also, the Kb in the test on Calf thymus DNA [4] is 1.08 ×10⁵ /M. Further, the Activity with Calf thymus DNA [5] was -4 nm.

As a reminder, the IC50 is the concentration needed to halve the response being measured.
